The values that follow come from US20130296430A1, “COMPOSITIONS AND METHODS FOR TREATING AUTISM AND AUTISM SPECTRUM DISORDER” (priority 2012, published 2013).

For series [1], the system named is children with autism. The series is described as follows: 12-week placebo-controlled study of NAC: Social Responsiveness Scale (SRS). It counts as in vivo, human. The source says: The Social Responsiveness Scale (SRS) (Constantino, J. et al., J Dev Behav Pediatr, 21:2-11 (2000); Constantino, J. et al., J Autism Dev Disord., 3:427-433 (2003)) is a norm-referenced, 65-item parent report questionnaire developed to measure social behaviors, including social awareness, social information processing, reciprocal social communication, and social anxiety, in both clinical and non-clinical populations. It is designed for use with children ages 4 through 18, and more recently, a special version of the SRS has been developed for preschoolers (Pine, E. et al., Autism, 10:344-352 (2006)). The SRS items measure the Autistic Spectrum Disorder (ASD) symptoms in the domains of social awareness, social information processing, reciprocal social communication, social anxiety/avoidance, and stereotypic behavior/restricted interests. Each item is scored from 1 (not true) to 4 (almost always true). Scores are obtained for five treatment subscales: Social Awareness (e.g., “Is aware of what others are thinking or feeling”), Social Cognition (e.g., “Doesn't recognize when others are trying to take advantage of him or her”), Social Communication (e.g., “Avoids eye contact or has unusual eye contact”), Social Motivation (e.g., “Would rather be alone than with others”), and Autistic Mannerisms (e.g., “Has an unusually narrow range of interests”). The SRS summary score was continuously distributed within each group and minimally correlated with Intelligent Quotient (IQ). High scores indicate more severe behavioral symptoms.
(§1) A 12-week, double-blind randomized, placebo-controlled study of NAC in children with autism was conducted in the Autism & Developmental Disabilities Clinic in the Division of Child & Adolescent Psychiatry at Stanford University Medical Center. The recruitment period started in March 2009 and ended in September 2010. Subjects with and without mental retardation were included. After obtaining informed consent, subjects were screened and inclusion and exclusion criteria were assessed. No changes in eligibility criteria were applied throughout the study. This investigation was approved by the institutional review board at Stanford University School of Medicine. An investigational new drug application (IND#100905) was filed with the Food and Drug Administration, and the study was registered in National Institutes of Health at ClinicalTrials.gov (identifier number NCT00627705).
After the screening phase, baseline measures were obtained from subjects continuing to meet inclusion and exclusion criteria. Subjects were then randomized to either placebo or active based on age and gender. As NAC is a nutritional supplement, the quality control is predictably variable and therefore purity is not as stringent as prescription medications. Therefore, in the present study, the stability of the compound was ascertained and the integrity of the active agent was protected by packaging each NAC doses in individual pockets. The active compound and matching placebo were provided by BioAdvantex Pharma, Inc. (Mississauga, Ontario, Canada). […] Subjects randomized to the active drug were initiated at the dose of 900 mg every day for the first 4 weeks, then 900 mg twice daily for 4 weeks and 900 mg three times daily for 4 weeks. (This dose selection was based on previously published studies for other psychiatric conditions (Grant, J. et al., Arch Gen Psychiatry, 66:468-475 (2009); Berk, M. et al., Biol Psychiatry, 64:361-368 (2008); Berk, M. et al., Bio Psychiatry, 64:468-475 (2008)) and the previous experience of our group in studies of children with cystic fibrosis). Alternatively, subjects were initiated at the dose of 900 mg per day, 1,800 mg per day, or 2,700 mg per day of NAC. Alternatively, the subjects were initiated at the dose ranging from 900 mg per day to 2,700 mg per day of NAC.
If a subject could not tolerate a specific dose, s/he would be maintained at the highest tolerated dose. […]

Series [2] concerns children with autism. The experiment in a line: 12-week placebo-controlled study of NAC: Repetitive Behavior Scale-Revised (RBS-R). The format is in vivo, human.
From the text: The Repetitive Behavior Scale-Revised (RBS-R) (Bodfish et al., The Repetitive Behavior Scale: A test manual (1998)) is an empirically derived clinical rating scale for measuring the presence and severity of a variety of forms of restricted, repetitive behavior that are characteristic of individuals with autism. The RBS-R consists of 6 subscales: stereotyped behavior, self-injurious behavior, compulsive behavior, routine behavior, sameness behavior, and restricted behavior. The scale provides an overall raw score for severity of repetitive behaviors and separate measures of severity for each subtype of repetitive behavior. High scores indicate more severe behavioral symptoms.
as §1
After the screening phase, baseline measures were obtained from subjects continuing to meet inclusion and exclusion criteria. Subjects were then randomized to either placebo or active based on age and gender. As NAC is a nutritional supplement, the quality control is predictably variable and therefore purity is not as stringent as prescription medications. Therefore, in the present study, the stability of the compound was ascertained and the integrity of the active agent was protected by packaging each NAC doses in individual pockets. The active compound and matching placebo were provided by BioAdvantex Pharma, Inc. (Mississauga, Ontario, Canada). […] Subjects randomized to the active drug were initiated at the dose of 900 mg every day for the first 4 weeks, then 900 mg twice daily for 4 weeks and 900 mg three times daily for 4 weeks. […]
If a subject could not tolerate a specific dose, s/he would be maintained at the highest tolerated dose. Subjects were evaluated at baseline, week 4, week 8 and week 12. […]

The conditions of series [3]: cited from earlier work.
For series [4] the following is noted: Noszal et al. 2000; cited from earlier work.
The mark [5] stands for this setting: Baseline (before treatment), NAC group n = 15.
Where [6] appears, read: standardized mean difference NAC vs placebo at Week 12.

Consider `CC(=O)N[C@@H](CS)C(=O)O` [NAC, N-acetylcysteine], for which the “SRS total, Mean (SD)” value with children with autism [1] (setting [5]) is 111.9 (28.3); with children with autism [1] (Week 12, NAC n = 14), 93.8 (26.7). Further, the “SRS-Total raw scores, treatment effect” value in the series on children with autism [1] (all randomized participants, NAC vs placebo, p=0.141) is recorded as “did not significantly influence”. The “SRS-Social Cognition sub-scale, treatment effect” value with children with autism [1] (all randomized participants, p=0.037, said to appear due to regression to the mean) is “significant improvements”. Further, the “SRS-Autism Mannerisms sub-scale, treatment effect” value with children with autism [1] (all randomized participants, p=0.045) is “significant improvements”. Further, the “any other SRS subscale, treatment effect” value in the series with children with autism [1] (all randomized participants, p>0.100) is given as “no significant treatment effects”. For the same compound, the “SRS-Total scores, treatment effect” value in the series on children with autism [1] (participants who completed the study (NAC N=13, placebo N=12), p=0.039) is given as “significantly improved”. The “SRS total, Cohen's d” value with children with autism [1] (setting [6]) is “.14”. The “RBS total, Mean (SD)” value is listed as 33.1 (16.2) in the series with children with autism [2] (setting [5]) and 22.3 (12.0) with children with autism [2] (Week 12, NAC n = 14). In the series on children with autism [2] (all randomized participants, NAC vs placebo, p=0.015), the “RBS-Total, treatment effect” value was “significant improvement”. In the series with children with autism [2] (setting [6]), the “RBS total, Cohen's d” value is recorded as “.57”. Also, in series [3] (compared with the stable cysteine disulfide, cystine), the “solubility relative to cystine” value was “much more soluble”. Also, the “stability relative to cysteine” value in series [3] (more stable than cysteine) is given as “about 10 times”. For the same compound, the “half-cell potential of the NAC thiol/disulfide pair” value in series [4] is listed as “about +63 mV”.
